Source: US11628146B2, “Estrogen receptor ligand treatment for neurodegenerative diseases” (The Regents of the University of California, priority 2014, dated 2023)
“Also recorded” adds a separate entry of the source.

Experiments:
EAE in C57BL/6 mice [1] = assay: Standard EAE clinical score (0-5 scale), MOG 35-55 induced EAE, C57BL/6 mice; format: in vivo, mouse
Source text: (§1) Animals. C57BL/6 and NOD mice 8 weeks old were purchased from Jackson Laboratories (Bar Harbor, Me.). Animals were maintained under environmentally controlled conditions in a 12-hour light/dark cycle with access to food and water ad libitum. All procedures were done in accordance with the guidelines of the National Institutes of Health and the Chancellor's Animal Research Committee of the University of California, Los Angeles Office for the Protection of Research Subjects.
(§2) Reagents. AC-186 was dissolved in either Miglyol 812N liquid oil (Sasol North America) or sesame oil (Sigma Aldrich) as following concentration; 1.5 mg/mL for 3 mg/kg group, 5 mg/mL for 10 mg/kg group, and 15 mg/mL for 30 mg/kg group. Diarylpropionitrile (DPN, Tocris Biosciences) was dissolved in 10% molecular-grade ethanol and diluted with 90% of either Miglyol 812N liquid oil or sesame oil.
(§3) EAE and Treatments. Animals were injected subcutaneously with Myelin Oligodendrocyte Glycoprotein (MOG), amino acids 35-55 (200 μg/animal, American Peptides), emulsified in complete Freund's adjuvant (CFA) and supplemented with Mycobacterium tuberculosis H37ra (300 μg/animal, Difco Laboratories), over two sites drained by left inguinal and auxiliary lymph nodes in a total volume of 0.1 ml/mouse. One week later, a booster immunization was delivered over contra lateral lymph nodes. Pertussis toxin (500 ng/mouse) (List Biological Laboratories, Inc.) was injected intraperitoneally on days 0 and 2. Animals were monitored daily for EAE signs based on a standard EAE 0-5 scale scoring system: 0—healthy, 1—complete loss of tail tonicity, 2—loss of righting reflex, 3—partial paralysis, 4—complete paralysis of one or both hind limbs, and 5—moribund. Animals received 0.05 ml of either of 1.5, 5, 15 mg/mL AC-186, vehicle (sesame oil or Miglyol 812N liquid oil), or DPN (8 mg/kg/day) via subcutaneous injections every other day. Animals were treated with AC-186 or vehicle after EAE induction. Specifically, treatment was initiated at the first clear signs of clinical disease (EAE day 13-15), and continued to the endpoint of the experiment.

EAE in NOD mice = assay: Standard EAE clinical score (0-5 scale), MOG-induced EAE, NOD mice; format: in vivo, mouse; settings: NOD females; DPN in miglyol vehicle; vs vehicle
Source text: as §1, §2, §3

EAE in C57BL/6 mice [2] = assay: Rotarod testing of motor coordination and balance in EAE, C57BL/6 mice; format: in vivo, mouse; settings: DPN in 10% ethanol/miglyol vs miglyol vehicle (FIG. 4; strain not given)
Description: Rotarod Testing. Motor behavior was tested up to two times per week for each mouse using a rotarod apparatus (Med Associates Inc., St. Albans, Vt.). Briefly, animals were placed on a rotating horizontal cylinder for a maximum of 200 seconds. The amount of time the mouse remained walking on the cylinder, without falling, was recorded. Each mouse was tested on a speed of 3-30 rpm and given three trials for any given day. The three trials were averaged to report a single value for an individual mouse, and then averages were calculated for all animals within a given treatment group. The first two trial days prior to immunization (day 0), served as practice trials.

[3] = Dissolution of the compound in the oil vehicle; format: physicochemical; settings: DPN; needed ethanol first
Description: as §2
Three doses of the AC-186 compound were tested in C57BL6 female mice: low (3 mg/kg, every other day), medium (10 mg/kg, every other day), and high (30 mg/kg, every other day), each injected subcutaneously in a sesame oil vehicle. The ERβ ligand diarylpropionitrile (DPN) was tested as a positive control because DPN can partially ameliorate EAE and because the treatment effects in EAE experiments can vary based on the level of disease severity within an experiment. Direct comparisons between treatments were only made between treatment groups within a single EAE experiment and not between treatment groups of different EAE experiments. […] The difference in improvement between the 30 mg/kg AC-186 group and all other groups increased with time.

EAE in C57BL/6 mice [4] = settings: DPN in Miglyol carrier; previous work; cited from earlier work
[5] = test system: spinal cords of C57BL/6 females with EAE; settings: DPN; previous experiments; cited from earlier work
[6] = test system: healthy female C57BL/6 mice (no EAE induced); assay: Morris water maze (spatial memory) in ovariectomized mice; format: in vivo, mouse; settings: for Morris water maze learning (time in target quadrant): ovariectomized, estriol-treated mice (OVX-Estriol) vs OVX-Placebo
Description: FIG. 25. Peripheral estrogens improve performance on the Morris water maze via ERβ expressed on neurons. Healthy female C57BL/6 (with no EAE induced) were tested for cognitive performance (spatial memory) using the Morris water maze, whereby mice learn to spend more time in a target quadrant (TQ) as compared to three other quadrants (OQ). […] (Bottom graph) To determine (a) whether ER beta is required for proper learning and, more specifically, (b) whether ER beta expression in neurons is required for learning, mice were generated that had ER beta conditionally knocked out using CreLox technology, with Cre driving the knock out in neurons via the neuron-specific enolase (NSE) promoter. […] (***p≤0.001, ANOVA-Sidak's posttest). […] The dashed line on the graphs indicates the time expected to be spent in a quadrant by random chance in the absence of learning (25%).

Compound	EAE score (EAE in C57BL/6 mice [1]; DPN in 10% ethanol/miglyol vs miglyol vehicle (FIG. 4; strain not given))	EAE score (EAE in C57BL/6 mice [1]; female C57BL/6, DPN in 10% ethanol in sesame oil)	EAE score (EAE in NOD mice)	Rotarod times (EAE in C57BL/6 mice [2])	Dissolution in sesame oil [3]	EAE amelioration (EAE in C57BL/6 mice [4])	CD45 staining in the CNS [5]	Iba-1 globoid cell staining [5]	Morris water maze learning (% duration in target quadrant) ([6]; OVX-Estriol NSE-Cre:ERβ fl/fl mice (neuronal ER beta knockout), listed as Estriol)	Morris water maze learning (time in target quadrant) [6]	Morris water maze learning (time in target quadrant) ([6]; listed as Estriol)
N#CC(Cc1ccc(O)cc1)c1ccc(O)cc1 (centres unmarked) [DPN, Diarylpropionitrile, reference compound]	protects against EAE better; also recorded: better EAE scores	not effective	significantly ameliorated EAE; also recorded: better EAE scores	better performance with the rotarod test	difficult to dissolve in sesame oil	ameliorated EAE	no significant effect on CD45 staining; also recorded: no effect on CD45 or Iba-1 globoid cell staining	no effect on CD45 or Iba-1 globoid cell staining			
C[C@]12CC[C@@H]3c4ccc(O)cc4CC[C@H]3[C@@H]1C[C@@H](O)[C@@H]2O [estriol]									estrogen-mediated improvement is lost	ability to learn may be restored	improves performance
